Measurements as given in the NIST ThermoML archive (doi:10.1021/je700260f).
± gives the expanded uncertainty stated by the source.

Settings: Liquid, Vibrating tube method

FC(C(F)(F)F)C(F)(F)F [1,1,1,2,3,3,3-heptafluoropropane]
Settings | mass density [kg/m3]
293.14 K, 33440 kPa | 1551.5 ± 1.8
293.14 K, 33474 kPa | 1551.5 ± 1.8
293.14 K, 33518 kPa | 1551.7 ± 1.8
293.14 K, 33554 kPa | 1551.8 ± 1.8
293.14 K, 33589 kPa | 1552 ± 1.8
293.15 K, 458 kPa | 1409.2 ± 1.5
293.15 K, 459 kPa | 1409.3 ± 1.5
293.15 K, 461 kPa | 1409.2 ± 1.5
293.15 K, 466 kPa | 1409.3 ± 1.5
293.15 K, 478 kPa | 1409.2 ± 1.5
293.15 K, 498 kPa | 1409.3 ± 1.5
293.15 K, 525 kPa | 1409.6 ± 1.5
293.15 K, 545 kPa | 1409.8 ± 1.5
293.15 K, 569 kPa | 1409.9 ± 1.5
293.15 K, 591 kPa | 1410.2 ± 1.5
293.15 K, 616 kPa | 1410.3 ± 1.5
293.15 K, 647 kPa | 1410.5 ± 1.5
293.15 K, 682 kPa | 1410.9 ± 1.5
293.15 K, 712 kPa | 1411 ± 1.5
293.15 K, 757 kPa | 1411.3 ± 1.5
293.15 K, 1646 kPa | 1417.7 ± 1.5
293.15 K, 1682 kPa | 1417.8 ± 1.5
293.15 K, 1714 kPa | 1418.1 ± 1.5
293.15 K, 1855 kPa | 1419.1 ± 1.5
293.15 K, 2431 kPa | 1422.8 ± 1.5
293.15 K, 2456 kPa | 1423.1 ± 1.5
293.15 K, 2481 kPa | 1423.1 ± 1.5
293.15 K, 2506 kPa | 1423.3 ± 1.5
293.15 K, 2536 kPa | 1423.7 ± 1.5
293.15 K, 2566 kPa | 1423.7 ± 1.5
293.15 K, 2590 kPa | 1424 ± 1.5
293.15 K, 2619 kPa | 1424.2 ± 1.5
293.15 K, 2653 kPa | 1424.3 ± 1.5
293.15 K, 3787 kPa | 1431.6 ± 1.5
293.15 K, 3853 kPa | 1432 ± 1.5
293.15 K, 3906 kPa | 1432.2 ± 1.5
293.15 K, 3939 kPa | 1432.5 ± 1.5
293.15 K, 3976 kPa | 1432.7 ± 1.5
293.15 K, 4019 kPa | 1432.9 ± 1.5
293.15 K, 4053 kPa | 1433.1 ± 1.5
293.15 K, 4077 kPa | 1433.4 ± 1.5
293.15 K, 4124 kPa | 1433.7 ± 1.5
293.15 K, 4157 kPa | 1434 ± 1.5
293.15 K, 4195 kPa | 1434 ± 1.5
293.15 K, 4219 kPa | 1434.2 ± 1.5
293.15 K, 4259 kPa | 1434.4 ± 1.5
293.15 K, 4286 kPa | 1434.6 ± 1.5
293.15 K, 4322 kPa | 1434.7 ± 1.5
293.15 K, 4367 kPa | 1435 ± 1.5
293.15 K, 4394 kPa | 1435.3 ± 1.5
293.15 K, 4425 kPa | 1435.6 ± 1.5
293.15 K, 4452 kPa | 1435.7 ± 1.5
293.15 K, 4488 kPa | 1435.9 ± 1.5
293.15 K, 4515 kPa | 1435.9 ± 1.5
293.15 K, 4556 kPa | 1436.2 ± 1.5
293.15 K, 4587 kPa | 1436.4 ± 1.5
293.15 K, 4614 kPa | 1436.6 ± 1.5
293.15 K, 4655 kPa | 1436.8 ± 1.5
293.15 K, 4687 kPa | 1437 ± 1.5
293.15 K, 4727 kPa | 1437.2 ± 1.5
293.15 K, 4754 kPa | 1437.4 ± 1.5
293.15 K, 4791 kPa | 1437.7 ± 1.5
293.15 K, 4815 kPa | 1437.8 ± 1.5
293.15 K, 4846 kPa | 1438.1 ± 1.5
293.15 K, 5062 kPa | 1439.2 ± 1.5
293.15 K, 5095 kPa | 1439.5 ± 1.5
293.15 K, 5137 kPa | 1439.6 ± 1.5
293.15 K, 5170 kPa | 1440 ± 1.5
293.15 K, 5198 kPa | 1440 ± 1.5
293.15 K, 5231 kPa | 1440.3 ± 1.5
293.15 K, 5259 kPa | 1440.4 ± 1.5
293.15 K, 5292 kPa | 1440.6 ± 1.5
293.15 K, 5321 kPa | 1440.8 ± 1.5
293.15 K, 5364 kPa | 1440.9 ± 1.5
293.15 K, 5392 kPa | 1441.2 ± 1.5
293.15 K, 5435 kPa | 1441.5 ± 1.5
293.15 K, 5472 kPa | 1441.7 ± 1.5
293.15 K, 5500 kPa | 1441.9 ± 1.5
293.15 K, 5537 kPa | 1442.1 ± 1.5
293.15 K, 5566 kPa | 1442.2 ± 1.5
293.15 K, 5610 kPa | 1442.3 ± 1.5
293.15 K, 5639 kPa | 1442.6 ± 1.5
293.15 K, 5678 kPa | 1442.8 ± 1.5
293.15 K, 5720 kPa | 1443 ± 1.5
293.15 K, 5755 kPa | 1443.2 ± 1.5
293.15 K, 5784 kPa | 1443.4 ± 1.5
293.15 K, 5818 kPa | 1443.6 ± 1.5
293.15 K, 5848 kPa | 1443.8 ± 1.5
293.15 K, 5896 kPa | 1444 ± 1.5
293.15 K, 5921 kPa | 1444.1 ± 1.5
293.15 K, 5955 kPa | 1444.4 ± 1.5
293.15 K, 5984 kPa | 1444.6 ± 1.5
293.15 K, 6018 kPa | 1444.7 ± 1.5
293.15 K, 6043 kPa | 1444.8 ± 1.5
293.15 K, 6073 kPa | 1445 ± 1.5
293.15 K, 6113 kPa | 1445.2 ± 1.5
293.15 K, 6138 kPa | 1445.5 ± 1.5
293.15 K, 6174 kPa | 1445.6 ± 1.5
293.15 K, 6205 kPa | 1445.7 ± 1.5
293.15 K, 6235 kPa | 1445.9 ± 1.5
293.15 K, 6260 kPa | 1446.1 ± 1.5
293.15 K, 6295 kPa | 1446.2 ± 1.5
293.15 K, 6323 kPa | 1446.4 ± 1.5
293.15 K, 6351 kPa | 1446.6 ± 1.5
293.15 K, 6375 kPa | 1446.8 ± 1.5
293.15 K, 6408 kPa | 1446.9 ± 1.5
293.15 K, 6437 kPa | 1447 ± 1.5
293.15 K, 6477 kPa | 1447.3 ± 1.5
293.15 K, 6508 kPa | 1447.5 ± 1.5
293.15 K, 6534 kPa | 1447.6 ± 1.5
293.15 K, 6566 kPa | 1447.6 ± 1.5
293.15 K, 6593 kPa | 1447.9 ± 1.5
293.15 K, 6624 kPa | 1448.1 ± 1.5
293.15 K, 6655 kPa | 1448.4 ± 1.5
293.15 K, 6682 kPa | 1448.4 ± 1.5
293.15 K, 6721 kPa | 1448.5 ± 1.5
293.15 K, 6752 kPa | 1448.8 ± 1.5
293.15 K, 6792 kPa | 1449 ± 1.5
293.15 K, 6823 kPa | 1449.3 ± 1.5
293.15 K, 6862 kPa | 1449.5 ± 1.5
293.15 K, 6885 kPa | 1449.5 ± 1.5
293.15 K, 6918 kPa | 1449.8 ± 1.5
293.15 K, 6944 kPa | 1449.9 ± 1.5
293.15 K, 6979 kPa | 1450 ± 1.5
293.15 K, 7002 kPa | 1450.1 ± 1.5
293.15 K, 7034 kPa | 1450.4 ± 1.5
293.15 K, 7074 kPa | 1450.7 ± 1.5
293.15 K, 7106 kPa | 1450.7 ± 1.5
293.15 K, 7134 kPa | 1450.8 ± 1.5
293.15 K, 7160 kPa | 1450.9 ± 1.5
293.15 K, 7196 kPa | 1451.2 ± 1.5
293.15 K, 7223 kPa | 1451.4 ± 1.5
293.15 K, 7255 kPa | 1451.5 ± 1.5
293.15 K, 7292 kPa | 1451.6 ± 1.5
293.15 K, 7319 kPa | 1451.9 ± 1.5
293.15 K, 7352 kPa | 1452 ± 1.5
293.15 K, 7380 kPa | 1452.1 ± 1.5
293.15 K, 7413 kPa | 1452.4 ± 1.5
293.15 K, 7445 kPa | 1452.6 ± 1.5
293.15 K, 7478 kPa | 1452.7 ± 1.5
293.15 K, 7506 kPa | 1452.9 ± 1.5
293.15 K, 7543 kPa | 1453.2 ± 1.5
293.15 K, 7575 kPa | 1453.2 ± 1.5
293.15 K, 7829 kPa | 1454.6 ± 1.5
293.15 K, 8576 kPa | 1458.4 ± 1.5
293.15 K, 8615 kPa | 1458.6 ± 1.5
293.15 K, 8640 kPa | 1458.7 ± 1.5
293.15 K, 8669 kPa | 1458.9 ± 1.5
293.15 K, 8716 kPa | 1459.1 ± 1.5
293.15 K, 8745 kPa | 1459.3 ± 1.5
293.15 K, 8774 kPa | 1459.5 ± 1.5
293.15 K, 8814 kPa | 1459.7 ± 1.5
293.15 K, 8862 kPa | 1459.9 ± 1.5
293.15 K, 8888 kPa | 1460 ± 1.5
293.15 K, 8923 kPa | 1460.2 ± 1.5
293.15 K, 8958 kPa | 1460.4 ± 1.5
293.15 K, 8988 kPa | 1460.5 ± 1.5
293.15 K, 9023 kPa | 1460.7 ± 1.5
293.15 K, 9057 kPa | 1461 ± 1.5
293.15 K, 9081 kPa | 1461.1 ± 1.5
293.15 K, 9121 kPa | 1461.1 ± 1.5
293.15 K, 9156 kPa | 1461.3 ± 1.5
293.15 K, 9182 kPa | 1461.5 ± 1.5
293.15 K, 9258 kPa | 1461.9 ± 1.5
293.15 K, 9989 kPa | 1465.5 ± 1.6
293.15 K, 10025 kPa | 1465.7 ± 1.6
293.15 K, 10056 kPa | 1465.8 ± 1.6
293.15 K, 10087 kPa | 1465.9 ± 1.6
293.15 K, 10128 kPa | 1466.3 ± 1.6
293.15 K, 10154 kPa | 1466.4 ± 1.6
293.15 K, 10195 kPa | 1466.7 ± 1.6
293.15 K, 10240 kPa | 1466.8 ± 1.6
293.15 K, 10275 kPa | 1466.7 ± 1.6
293.15 K, 10316 kPa | 1467.1 ± 1.6
293.15 K, 10555 kPa | 1468.1 ± 1.6
293.15 K, 10597 kPa | 1468.5 ± 1.6
293.15 K, 10638 kPa | 1468.7 ± 1.6
293.15 K, 10669 kPa | 1468.7 ± 1.6
293.15 K, 10706 kPa | 1469 ± 1.6
293.15 K, 10738 kPa | 1469.2 ± 1.6
293.15 K, 10775 kPa | 1469.4 ± 1.6
293.15 K, 10808 kPa | 1469.4 ± 1.6
293.15 K, 10851 kPa | 1469.6 ± 1.6
293.15 K, 10882 kPa | 1469.7 ± 1.6
293.15 K, 10920 kPa | 1470 ± 1.6
293.15 K, 10958 kPa | 1470.2 ± 1.6
293.15 K, 11044 kPa | 1470.6 ± 1.6
293.15 K, 11082 kPa | 1470.6 ± 1.6
293.15 K, 11132 kPa | 1470.9 ± 1.6
293.15 K, 11159 kPa | 1471.4 ± 1.6
293.15 K, 11209 kPa | 1471.3 ± 1.6
293.15 K, 11254 kPa | 1471.6 ± 1.6
293.15 K, 11292 kPa | 1471.8 ± 1.6
293.15 K, 11324 kPa | 1471.9 ± 1.6
293.15 K, 11368 kPa | 1472.1 ± 1.6
293.15 K, 11401 kPa | 1472.3 ± 1.6
293.15 K, 11439 kPa | 1472.4 ± 1.6
293.15 K, 11473 kPa | 1472.6 ± 1.6
293.15 K, 11518 kPa | 1472.8 ± 1.6
293.15 K, 11556 kPa | 1472.9 ± 1.6
293.15 K, 11601 kPa | 1473.2 ± 1.6
293.15 K, 11629 kPa | 1473.3 ± 1.6
293.15 K, 11668 kPa | 1473.4 ± 1.6
293.15 K, 11713 kPa | 1473.7 ± 1.6
293.15 K, 11752 kPa | 1473.8 ± 1.6
